Residues, ends and D or L forms follow the SMILES beside them. *: point of attachment. Cbz = O=C(OCc1ccccc1)*

The target in one test is T1, PDE10A (Homo sapiens, UniProt Q9Y233).
T1 construct: purchased BPS Bioscience
The test can be described thus: PDE10A purified enzyme activity assay (BPS Bioscience). Type of test: biochemical. The text has this:
We therefore defined the structure activity relationship (SAR) of PPV relative to two assays: inhibition of cellular OCR by Seahorse XE assay, and inhibition of PDE10A by purified enzyme activity (PDE10A activity assay, BPS Bioscience). […] Because the top portion of PPV was a planar structure like that of rotenone, we decided to focus our attention on the lower portion of the molecule.

Another test has as its system MP2 pODD flank tumors. Put plainly: in vivo bioluminescent imaging, heterotopic MP2 pODD flank tumors. Further details: species or system mouse. As to the method: In vivo bioluminescent imaging. […] For heterotopic flank tumor experiments, 1×10^6 HeLa pODD or 5×10^6 MP2 cells were injected subcutaneously (s.c.) into the flanks of 6-wk-old female (HeLa pODD) or male (N1P2 pODD or MP2 CMV) immunocompromised athymic nu/nu mice. Replicate experiments with groups of 4-6 mice were used for statistical reproducibility. Caliper measurements of opposing diameters were used to calculate the tumor volumes using the modified ellipsoidal formula: tumor volume=(length×width^2)[23]. Upon reaching 100 mm^3, the animals were given 100 mg/kg D-luciferin intraperitoneally and bioluminescence images were captured using IVIS In Vivo Imaging System Lumina II (Perkin Elmer Inc). […] Bioluminescent data were analyzed using living Image software (Perkin Elmer Inc) and calculated as photon flux/sec. Obtained individual photon flux peak values were then normalized to baseline for each mouse and averaged per group. Gas inhalation experiments were performed by switching medical air and carbogen gas sources for the IVIS anesthesia vaporizer. Initial baselines were established in medical air under anesthesia, then the mice were subjected to 30 minutes of either medical air or carbogen rebreathing in an air-tight chamber while awake. After 30 minutes, photon flux was established in respective gas sources as a carrier for isoflurane anesthesia.

Test [1] relates to pODD-Luc reporter in MP2 pODD cells. Put plainly: in vitro luciferase assay, MP2 pODD cells. The class given is cell-based, human. Conditions: one hour of 10 μM. As to the method: PCR-amplified cassette was then digested with Asci and Pmel restriction enzymes and ligated into pLenti-C-Myc-DDK-IRES-Puro. Correct orientation and sequence was confirmed by Sanger DNA sequencing. HeLa pODD and MIP2 pODD transfectants were selected with 2 μg/ml Puromycin for two weeks. Stable MP2 CMV Cells were generated by lentiviral transduction of MP2 cells with pLenti-CMV-Puro-Luc lentiviral vector (Addgene#17477) with 2 Puromycin selection for two weeks. Cells were grown in Dulbecco's Modified Eagle's Medium (DMEM) containing 25 mM D-glucose, 4 mM glutamine and 44 mM sodium bicarbonate in 5% CO2, if not stated otherwise. The cells were exposed to hypoxia (1% O2) in H35 Hypoxic Workstation (Hypoxygen) with 5% CO2 at 37° C. In some experiments, we used a hypoxia mimetic dimethyloxalyglycine (DMOG) as described. Cell counts and cellular proliferation were established using hemocytometer to determine the cell number and trypan blue exclusion assay to establish the fraction of viable/dead cells. All human cell lines have been authenticated using STR profiling within the past 3 years. All experiments were performed with mycoplasma-free cells.
In vitro luciferase Assay. Proteins were extracted using Luciferase Assay Lysis Buffer (125 mM Tris-HCl, pH 7.5, 11.0 mM DTT, 10 mM EGTA, 50% Glycerol, 5% Triton X-100) and 200 μl/sample were transferred to 96-well plate and D-luciferin was added to the final concentration of 150 μg/ml immediately before the assay. Bioluminescence was measured on a Synergy H1 Hybrid Plate Reader (Biotek) after a 10-minute incubation period (10 slsample, Gain=150) in triplicates.

A further test deals with ETC complex 1 (C1) (Homo sapiens, UniProt O75251+O75306+P03886). Put plainly: inhibition of cellular OCR by Seahorse XE assay. Type of test: cell-based. The source says: PPVs PDE and mitochondrial activities are chemically separable. Papaverine has been traditionally thought to be effective as a vasodilator for the treatment of conditions including erectile dysfunction because it can inhibit PDE10A (like PDE 5 inhibitors sildenafil and tadalafil). However, PDE inhibition is not responsible for OCR effects in vitro, so we postulated that there are two activities in PPV, one inhibiting ETC complex 1 (C1) and one inhibiting PDE10A that may reside in different parts of the molecule. We therefore defined the structure activity relationship (SAR) of PPV relative to two assays: inhibition of cellular OCR by Seahorse XE assay, and inhibition of PDE10A by purified enzyme activity (PDE10A activity assay, BPS Bioscience). Because PPV can compete with rotenone at complex 1 (23), we reasoned that they may be binding the same site and therefore the structures would be similar relative to their target. Because the top portion of PPV was a planar structure like that of rotenone, we decided to focus our attention on the lower portion of the molecule.

The next test concerns murine tumors. The test can be described thus: murine tumor hypoxia and radiation response. The note with it: mouse, in vivo.

Chain of ETC complex 1 (C1) (O75251 39-213): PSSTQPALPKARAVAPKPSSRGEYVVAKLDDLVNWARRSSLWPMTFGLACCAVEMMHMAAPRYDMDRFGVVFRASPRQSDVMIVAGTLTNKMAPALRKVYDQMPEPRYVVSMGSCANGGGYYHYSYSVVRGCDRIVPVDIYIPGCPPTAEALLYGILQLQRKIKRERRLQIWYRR
Chain of ETC complex 1 (C1) (O75306 34-463): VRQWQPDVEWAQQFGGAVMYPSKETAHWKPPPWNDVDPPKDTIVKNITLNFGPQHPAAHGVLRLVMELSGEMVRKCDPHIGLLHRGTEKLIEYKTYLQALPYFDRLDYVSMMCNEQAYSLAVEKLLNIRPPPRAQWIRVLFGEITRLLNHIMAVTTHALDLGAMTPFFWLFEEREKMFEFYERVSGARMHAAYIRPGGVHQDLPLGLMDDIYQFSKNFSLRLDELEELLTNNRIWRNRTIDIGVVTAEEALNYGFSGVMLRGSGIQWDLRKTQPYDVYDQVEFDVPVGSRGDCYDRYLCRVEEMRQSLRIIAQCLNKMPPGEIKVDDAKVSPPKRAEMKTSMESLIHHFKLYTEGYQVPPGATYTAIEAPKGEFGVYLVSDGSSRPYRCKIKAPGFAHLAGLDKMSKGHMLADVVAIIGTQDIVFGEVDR
Chain of ETC complex 1 (C1) (P03886 whole entry): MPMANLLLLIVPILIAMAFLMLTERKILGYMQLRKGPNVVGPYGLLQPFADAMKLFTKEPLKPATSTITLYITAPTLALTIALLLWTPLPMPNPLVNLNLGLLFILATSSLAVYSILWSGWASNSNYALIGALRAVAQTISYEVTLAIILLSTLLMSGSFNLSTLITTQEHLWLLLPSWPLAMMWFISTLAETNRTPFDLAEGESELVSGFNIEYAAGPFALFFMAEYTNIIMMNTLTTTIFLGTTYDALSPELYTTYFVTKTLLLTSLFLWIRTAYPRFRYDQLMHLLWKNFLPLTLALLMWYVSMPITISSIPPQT
T1 sequence (Q9Y233 whole entry): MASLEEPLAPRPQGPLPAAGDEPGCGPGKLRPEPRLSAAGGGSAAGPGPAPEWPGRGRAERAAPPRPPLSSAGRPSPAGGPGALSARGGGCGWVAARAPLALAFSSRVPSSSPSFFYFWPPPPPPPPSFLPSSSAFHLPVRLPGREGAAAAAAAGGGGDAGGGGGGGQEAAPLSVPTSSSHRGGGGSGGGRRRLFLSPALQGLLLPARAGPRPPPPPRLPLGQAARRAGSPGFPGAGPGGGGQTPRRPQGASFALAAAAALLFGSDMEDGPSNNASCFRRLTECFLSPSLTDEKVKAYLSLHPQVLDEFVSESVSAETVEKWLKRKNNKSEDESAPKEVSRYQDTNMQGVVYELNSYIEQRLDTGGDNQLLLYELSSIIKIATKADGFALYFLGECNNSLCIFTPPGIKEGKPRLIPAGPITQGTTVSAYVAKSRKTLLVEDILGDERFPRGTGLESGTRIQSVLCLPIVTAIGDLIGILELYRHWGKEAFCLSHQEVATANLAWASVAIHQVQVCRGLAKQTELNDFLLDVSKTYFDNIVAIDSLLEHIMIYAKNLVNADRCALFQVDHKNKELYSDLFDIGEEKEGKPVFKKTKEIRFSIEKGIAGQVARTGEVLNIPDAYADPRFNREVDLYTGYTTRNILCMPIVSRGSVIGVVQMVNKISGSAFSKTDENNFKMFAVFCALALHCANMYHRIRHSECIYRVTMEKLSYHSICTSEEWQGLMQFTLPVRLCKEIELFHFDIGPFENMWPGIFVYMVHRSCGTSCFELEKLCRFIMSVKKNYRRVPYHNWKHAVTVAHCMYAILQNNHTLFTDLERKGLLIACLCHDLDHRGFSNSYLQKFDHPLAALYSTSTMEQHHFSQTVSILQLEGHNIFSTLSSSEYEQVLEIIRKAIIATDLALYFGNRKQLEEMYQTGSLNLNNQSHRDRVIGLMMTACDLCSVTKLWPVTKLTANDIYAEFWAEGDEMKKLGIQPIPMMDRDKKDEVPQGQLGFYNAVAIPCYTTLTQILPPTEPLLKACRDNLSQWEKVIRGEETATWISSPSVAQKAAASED

Take `COc1cc2ccnc(Cc3cc(C)cc(C)c3)c2cc1OC` [SMV23]: the “PDE inhibition IC25” value on PDE10A (dose response analysis) was 500 nM. For the same molecule, on PDE10A (vs C1), the “PDE10A inhibitor selectivity” value is “relatively pure”.
As for `CC(C)C[C@H](NC(=O)[C@H](Cc1ccccc1)NC(=O)c1cnccn1)B(O)O` [bortezomib], in the test with MP2 pODD flank tumors (1 mg/kg intraperitoneally, 2 hours post injection), the “photon flux” value is “significant increase of photon flux”.
`O=C(O)C(Cl)Cl` [DCA, Dichloroacetate]: the “increase of photon flux” value with MP2 pODD flank tumors (intraperitoneal 75 mg/kg) is recorded as 1.8 ×.
In the case of `CC(C)C[C@@H](C=O)NC(=O)[C@H](CC(C)C)NC(=O)[C@H](CC(C)C)NC(=O)OCc1ccccc1` [MG132] (Cbz-Leu-Leu-Leu-aldehyde), in test [1], the “increase in pODD-Luc activity compared to 24 h hypoxia” value worked out at 70 fold and the “induction of pODD-Luc activity compared to normoxia” value was determined as 377 fold.
On to `COc1ccc(OCc2nccc3cc(OC)c(OC)cc23)cc1OC` [SMV37], for which the “mitochondrial activity” value at ETC complex 1 (C1) is given as “retain mitochondrial activity”. For the same molecule, the “C1 inhibitor selectivity” value on ETC complex 1 (C1) (vs PDE10A) was “relatively pure”. In addition, in the test with murine tumors, the “radiation response” value was “increase radiation response of murine tumors” and the “tumor hypoxia” value is reported as “reduce tumor hypoxia”.
Regarding `O=[N+]([O-])c1ccc(O)c([N+](=O)[O-])c1` [2,4-DNP, 2,4-dinitrophenol], the “increase of photon flux compared to baseline” value in the test on MP2 pODD flank tumors (single intraperitoneal dose of 20 mg/kg) came to 1.6 ×.

For the origin of these results see patent US20230390277A1, “METHODS TO SENSITIZE TUMORS TO TREATMENT BY IMMUNOTHERAPY” (Ohio State Innovation Foundation, priority 2020, published 2023).
